Results taken from patent US11192932B2, “Heparin-binding domain of IGFBP-2 in the treatment of metabolic disorders” (Amolyt Pharma, priority 2018, dated 2021).
“Also recorded” adds a separate entry of the source.

Assays:
3T3-LI adipocytes = assay: [3H]-2-deoxyglucose uptake by fully differentiated 3T3-LI adipocytes; format: cell-based, mouse; settings: 3 μg/ml for 24 hours
Protocol: The cells were exposed to the test compounds at a concentration of 3 μg/ml for 24 hours before testing for [^3H]-2-deoxyglucose uptake.
3T3-LI cells are a mouse fibroblast cell line which when cultured under specific conditions, differentiate into adipocytes.
Differentiation of 3T3-LI cells into adipocytes was achieved using the following protocol. 3T3-L1 cells were seeded in 24-well plates and cultured in 3T3-L1 maintenance medium (DMEM containing 10% fetal bovine serum, 4 mM L-glutamine 1 mM, sodium pyruvate) until the cells were 100% confluent. The cells were then fed with 3T3-L1 maintenance medium and cultured for a further 48 h. To initiate differentiation into adipocytes, the medium was changed to Differentiation medium 1 (DMEM containing 10% fetal bovine serum, 4 mM L-glutamine, 1 mM sodium pyruvate, 0.5 mM IBMX, […]), and cultured for a further 2 days. The medium was then changed to Differentiation medium 2 (DMEM containing 10% fetal bovine serum, 4 mM L-glutamine, 1 mM sodium pyruvate, 1 mg/ml insulin), and cultured for a further 2 days. The medium was then changed to Adipocyte Maintenance medium (DMEM containing 10% fetal bovine serum, 4 mM L-glutamine, 1 mM sodium pyruvate), and cultured for a further 7 days. During this time, the medium was changed every other day. The now fully differentiated adipocytes were utilized for glucose uptake experiments (day 11 from initiation of differentiation). Stock solutions of the HBD1 peptides to be tested were prepared by dilution with 0.9% NaCl solution under sterile conditions in a laminar flow cabinet to a concentration of 1 mg/ml, based on net peptide content. The solutions were homogenized by gentle inversion. Test items were prepared from the stock solutions, and remaining stock solution was aliquoted and stored at −20° C. and used without repeated freeze-thaw cycles.
Glucose uptake experiments were carried our using the following protocol. Prior to beginning the experiment, 100 ml of Krebs Ringer bicarbonate buffer (KRBB)(25 mM Hepes pH 7.4, 118 mM NaCl, 5 mM NaHCO3, 4.7 mM KCl, 1.2 mM KH2PO4, 1.2 mM MgSO4, 2.5 mM CaCl2, 0.2% BSA—Filtered using a 0.2 μm filter) and 100 ml of Incubation medium (DMEM containing 4 mM L-glutamine, 1 mM sodium pyruvate, 1% penicillin streptomycin, 0.2% BSA—Filtered using a 0.2 μm filter) were pre-warmed to 37° C., and 500 ml of KRBB was chilled on ice. Stock solutions of test compounds were diluted to 3 μg/ml final concentrations in pre-warmed Incubation medium and in pre-warmed KRBB. Insulin (positive control), previously diluted 1:1000 in sterile 0.9% NaCl, was further diluted in 10 ml of both medium and buffer to a final concentration of 1 nM. All traces of the medium were carefully removed from the cells using a fine tip. […]

mice = settings: publication Xi, 2013; cited from earlier work
[1] = test system: C2C12 mouse skeletal muscle myotubes; assay: 3H-2-deoxyglucose uptake by fully differentiated C2C12 myotubes; format: cell-based; settings: C2C12 myotubes, SEQ ID NO: 73 alone or together with insulin (FIG. 8)
Protocol: In particular: HBD1 SEQ ID NO: 73 (C18:0-HLGLEEPKK) at 0.8 μM, 1.5 μM, and 2.3 μM; or 1.5 μM SEQ ID NO: 73 (C18:0-HLGLEEPKK) for 2, 4, and 16 hours prior to testing glucose uptake.
The studies were performed using cultured, fully differentiated C2C12 mouse skeletal muscle myotubes. The cells were prepared by growing C2C12 cells to confluent density in DMEM with 25 mM glucose and 10% fetal bovine serum in 24 well plates. At this time, the medium was changed to differentiation medium (DMEM with 25 mM glucose and 2% horse serum) for 6 days with medium changed every third day. The various treatments were diluted in serum-free medium and, after washing the cells with serum-free medium, were added to the cells and incubated for 2 hours or alternative times, depending on the treatment. At the end of incubation period, the media was removed and 1.0 ml of glucose-free Krebs ringer bicarbonate buffer (pH 7.4), containing the same treatments, was added and incubation continued for 10 minutes. At the end of the 10 min incubation period, ^3H-2-deoxyglucose ([…]) (specific activity=8 Ci/mmole) was added directly to all wells, and the incubation continued for an additional […]. The wells were then rinsed three times with ice cold phosphate buffered saline, the cells were extracted with 0.5 N NaOH, and the ^3H-2-deoxyglucose content of the cell lysate quantitated by scintillation counting.

AMPK = AMPK phosphorylation (immunoblot anti-pAMPK T172) in C2C12 myotubes; format: cell-based, mouse; settings: C2C12 myotubes treated with SEQ ID NO: 73 (FIG. 7)
Protocol: In particular: HBD1 SEQ ID NO: 73 (C18:0-HLGLEEPKK). The AMPK pathway is both insulin and IGF1 independent, but acts ultimately to induce GLUT4 translocation to the cell membrane to facilitate the uptake and metabolism of glucose.
For signaling studies the cells were prepared the same way except 6-well plates were used. After 6 days incubation in differentiating medium, the cells were washed with serum-free medium. The various treatments were then added in serum free medium containing 0.1% BSA. HBD1 peptides were added and incubated for 8 hours. When utilizing IGF-I, incubation was for 15 minutes after IGF-1 addition. Following incubation the cells were lysed in RIPA buffer and sonicated. The cell lysate was centrifuged and the supernatant analyzed for either Akt or AMPK by SDS PAGE using a 10% gel followed by immunoblotting with the appropriate antibody.
To examine further the intracellular transduction pathways utilized by the HBD1 peptides, following treatment with HBD1 peptide SEQ ID NO: 73 (C18:0-HLGLEEPKK), cell lysate proteins, were separated by SDS PAGE and immunoblotted with anti-pAMPK T172.

Molecule | glucose uptake by 3T3-LI adipocytes (3T3-LI adipocytes) | body weight and fat accumulation (mice) | glucose tolerance (mice) | effect of blocker on SEQ ID NO: 73-stimulated glucose uptake [1] | effect of blocker on SEQ ID NO: 73-induced AMPK phosphorylation (AMPK)
HLGLEEPKK [SEQ ID NO: 10] | stimulated increased glucose uptake |  |  |  | 
KHHLGLEEPKKLR [SEQ ID NO: 1] | stimulated increased glucose uptake | decrease body weight and fat accumulation | no effect |  | 
c1cc(-c2cnn3cc(-c4ccc(OCCN5CCCCC5)cc4)cnc23)ccn1 [Compound C, reference compound] |  |  |  | completely abolished; also recorded: prevented | completely abolished; also recorded: prevented
HHLGLEEPKK [SEQ ID NO: 16] | stimulated increased glucose uptake |  |  |  | 
